# Like-named read-outs stand apart in the source and are kept apart here. Residues, ends and D or L forms follow the SMILES beside them.
# Key:
# HLA-A0301 = biological target: T1, HLA-A0301 (Homo sapiens, UniProt P04439); test: Peptide competitive binding assay, transfected HMy2.CIR cells, reference ATFQFK(FITC)VER
# T1 construct: expressed in transfected cells; host or cells: HMy2.CIR
# How it was run: (§1)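 Affinity is expressed as IC50 for displacement of the FITC-labeled reference peptide from HLA-A on transfected HMy2.CIR cells. Cell-surface molecules were first emptied by brief acid treatment (pH 3.3) and then refolded with β2-m at 1 μg/mL in the presence of competitor.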
# HLA-A1102 = biological target: T2, HLA-A1102 (Homo sapiens, UniProt P04439, A114D/D185E/E176A/E43K/F33Y/L180Q/S129P/T187R); test: as above
# T2 construct: expressed in transfected cells; host or cells: HMy2.CIR
# How it was run: as §1
# [1] = system: twelve prevalent HLA-A allotypes; test: Peptide competitive binding assay, whole panel; design: species or system human; details: high = IC50<5μM
# Description: A set of fluoresce-labeled reference peptides (positive-control peptide) were synthesized with a purity of >99% by Sangon Biotech and stored at 4°C, such as FLPSDK(FITC)FPSV for A0201, A0203 and A0206 ([30]), YVNVNK(FITC)GLK for A1101 and A3303 ([31]), EYLVSK(FITC)GVW for A2402 ([32]), ATFQFK(FITC)VER for A3101, A1102 and A0301 ([33]), KLPDDFK(FITC)GCV for A0207 ([34]), YLEPAK(FITC)AKY for A0101 ([30]), and ASRELK(FITC)VSY for A3001 (identified in house). Then the competitive peptide binding assay was performed as described with minor modifications ([30], [35]). Briefly, the HMy2.CIR cell lines expressing the indicated HLA-A molecule were washed with acid buffer (0.131M citric acid and 0.061M sodium phosphate Na2HPO4, PH3.3, 0.22 μm filtered) for 1 min, and immediately neutralized by IMDM medium containing 0.5% BSA. After washing, the cells were seeded into 96-well U culture plate (1×10^5 cells/100 μL/well) with β2-m (1 μg/mL). […] In parallel, no peptide control well (cells alone) and positive control well (cells with FITC-labeled reference peptide) were also performed.
# The plate was centrifuged at 600 rpm for 5 min at room temperature (RT). Cells were washed twice with 100 μL cold 0.5% BSA-PBS. Finally, cells were resuspended with 150 μL PBS and analyzed with flow cytometry. Sample % is the percentage of FITC^+ cells in the experiment well, while the background % is the percentage of FITC^+ cells in the no peptide control well, and the max % is the percentage of FITC^+ cells in the positive control well. Competitive binding (%) = [1-(sample % - background %)/(max % – background %)] × 100%. […] Binding affinity of unlabeled peptide with the indicated HLA-A molecule is assessed by IC50.
# Subsequently, the unlabeled epitope peptides of HBV competed with fluorescently labeled reference peptides in the binding with HLA-A molecules onto transfected cell lines for 24 hours. Here, twelve prevalent HLA-A allotypes were tested with totally 62 HBV epitope peptides validated in house.
# HLA-A1101 = biological target: T3, HLA-A1101 (Homo sapiens, UniProt P04439, A114D/D185E/E176A/F33Y/L180Q/S129P/T187R); test: cell-based; type: binding; details: for inhibition at 5 µM: read-out: 5μM Inhibition (%); for inhibition at 15 µM: read-out: 15μM Inhibition (%)
# T3 construct: expressed in transfected cells; host or cells: HMy2.CIR
# How it was run: as §1
# HLA-A0201 = biological target: T4, HLA-A0201 (Homo sapiens, UniProt P04439, D140Y/D185E/D98H/E176V/E277Q/G131W/G231S/I119V/I121R/I166T/I218V/L300P/L318F/N151K/N90K/P208A/P217A/Q86G/Q94H/R138H/R169H/T345S); test: cell-based; type: binding; details: for inhibition at 5 µM / inhibition at 15 µM: HLA-A0201 HMy2.CIR cells, 24 hours, flow cytometry; for inhibition at 5 µM: competitor peptide 5μM, read-out: 5μM Inhibition (%); for inhibition at 15 µM: competitor peptide 15μM, read-out: 15μM Inhibition (%)
# T4 construct: expressed in transfected cells; host or cells: HMy2.CIR
# How it was run: as §1
# HLA-A3303 = biological target: T5, HLA-A3303 (Homo sapiens, UniProt P04439, A270S/D185E/E176V/E277Q/E87N/F33T/G231S/H175R/I121M/I218V/I322F/K168Q/L300P/L318F/M331R/P217A/Q86R/Q94H/R138Q/T323A/T345S/T97I/V358M); test: cell-based; type: binding; details: for inhibition at 5 µM / inhibition at 15 µM: HLA-A3303 HMy2.CIR cells, 24 hours, flow cytometry; for inhibition at 5 µM: competitor peptide 5μM, read-out: 5μM Inhibition (%); for inhibition at 15 µM: competitor peptide 15μM, read-out: 15μM Inhibition (%)
# T5 construct: expressed in transfected cells; host or cells: HMy2.CIR
# How it was run: as §1
# HLA-A0203 = biological target: T6, HLA-A0203 (Homo sapiens, UniProt P04439, A173T/D140Y/D185E/D98H/E277Q/G131W/G231S/I119V/I121R/I166T/I218V/L180W/L300P/L318F/N151K/N90K/P208A/P217A/Q86G/Q94H/R138H/R169H/T345S); test: cell-based; type: binding; details: for inhibition at 5 µM / inhibition at 15 µM: HLA-A0203 HMy2.CIR cells, 24 hours, flow cytometry; for inhibition at 5 µM: competitor peptide 5μM; for inhibition at 15 µM: competitor peptide 15μM
# T6 construct: expressed in transfected cells; host or cells: HMy2.CIR
# How it was run: as §1
# HLA-A0207 = biological target: T7, HLA-A0207 (Homo sapiens, UniProt P04439, D140Y/D185E/D98H/E176V/E277Q/G131W/G231S/I119V/I121R/I166T/I218V/L300P/L318F/N151K/N90K/P208A/P217A/Q86G/Q94H/R138H/R169H/T345S/Y123C); test: cell-based; type: binding; details: for inhibition at 5 µM / inhibition at 15 µM: HLA-A0207 HMy2.CIR cells, 24 hours, flow cytometry; for inhibition at 5 µM: competitor peptide 5μM, read-out: 5μM Inhibition (%); for inhibition at 15 µM: competitor peptide 15μM, read-out: 15μM Inhibition (%)
# T7 construct: expressed in transfected cells; host or cells: HMy2.CIR
# How it was run: as §1
# HLA-A0206 = biological target: T8, HLA-A0206 (Homo sapiens, UniProt P04439, D140Y/D185E/D98H/E176V/E277Q/F33Y/G131W/G231S/I119V/I121R/I166T/I218V/L300P/L318F/N151K/N90K/P208A/P217A/Q86G/Q94H/R138H/R169H/T345S); test: cell-based; type: binding; details: for inhibition at 5 µM / inhibition at 15 µM: HLA-A0206 HMy2.CIR cells, 24 hours, flow cytometry; for inhibition at 5 µM: competitor peptide 5μM, read-out: 5μM Inhibition (%); for inhibition at 15 µM: competitor peptide 15μM, read-out: 15μM Inhibition (%)
# T8 construct: expressed in transfected cells; host or cells: HMy2.CIR
# How it was run: as §1
# HLA-A2402 = HLA-A2402 (Homo sapiens, UniProt P04439, D101N/D140Y/D185E/E176V/E190D/F33S/G103R/G107R/I119L/I121M/I306V/K335N/L105A/L180Q/L300P/N151K/N90K/Q86E/Q94H/R106L/R138H/R89G/T104I/T345S/V100E/W191G/Y123F); test: cell-based; type: binding; details: for inhibition at 5 µM / inhibition at 15 µM: HLA-A2402 HMy2.CIR cells, 24 hours, flow cytometry; for inhibition at 5 µM: competitor peptide 5μM; for inhibition at 15 µM: competitor peptide 15μM
# How it was run: as §1
# [2] = HLA-A1101 HMy2.CIR cells, competitor peptide 5μM, 24 hours, flow cytometry
# [3] = HLA-A1101 HMy2.CIR cells, competitor peptide 15μM, 24 hours, flow cytometry
Compound,number of HLA-A allotypes bound with high affinity [1],IC50 (HLA-A1101) [µM],inhibition at 5 µM (HLA-A1101; [2]) [%],inhibition at 15 µM (HLA-A1101; [3]) [%],IC50 (HLA-A0201) [µM],inhibition at 5 µM (HLA-A0201) [%],inhibition at 15 µM (HLA-A0201) [%],IC50 (HLA-A3303) [µM],inhibition at 5 µM (HLA-A3303) [%],inhibition at 15 µM (HLA-A3303) [%],IC50 (HLA-A0203) [µM],inhibition at 5 µM (HLA-A0203) [%],inhibition at 15 µM (HLA-A0203) [%],inhibition at 5 µM (HLA-A0207) [%],inhibition at 15 µM (HLA-A0207) [%],inhibition at 5 µM (HLA-A0206) [%],inhibition at 15 µM (HLA-A0206) [%],IC50 (HLA-A2402) [µM],inhibition at 5 µM (HLA-A2402) [%],inhibition at 15 µM (HLA-A2402) [%],also measured
CC(C)C[C@H](NC(=O)[C@@H](NC(=O)[C@H](CCC(N)=O)NC(=O)[C@H](Cc1c[nH]cn1)NC(=O)[C@H](C)NC(=O)[C@H](CC(N)=O)NC(=O)[C@@H](NC(=O)[C@@H](N)[C@@H](C)O)C(C)C)C(C)C)C(=O)N1CCC[C@H]1C(=O)N[C@@H](CCCCN)C(=O)O [Epitope P48] (H-TVNAHQVLPK-OH; N-terminus and C-terminus assumed),two,< 5,86,91,> 15,9.5,15,–,–,–,–,–,–,–,–,–,–,–,–,–,"inhibition at 5 µM (HLA-A0301; HLA-A0301 HMy2.CIR cells, competitor peptide 5μM, 24 hours, flow cytometry, read-out: 5μM Inhibition (%)): 67.9%; inhibition at 15 µM (HLA-A0301; HLA-A0301 HMy2.CIR cells, competitor peptide 15μM, 24 hours, flow cytometry, read-out: 15μM Inhibition (%)): 73.9%; IC50 (HLA-A0301; read-out: Affinity): < 5 µM; inhibition at 5 µM (HLA-A1102; HLA-A1102 HMy2.CIR cells, competitor peptide 5μM, 24 hours, flow cytometry, read-out: 5μM Inhibition (%)): 25.5%; inhibition at 15 µM (HLA-A1102; HLA-A1102 HMy2.CIR cells, competitor peptide 15μM, 24 hours, flow cytometry, read-out: 15μM Inhibition (%)): 42.7%; IC50 (HLA-A1102; read-out: Affinity): > 15 µM"
CC(C)C[C@H](NC(=O)[C@@H](N)Cc1ccccc1)C(=O)N1CCC[C@H]1C(=O)N[C@@H](CO)C(=O)N[C@@H](CC(=O)O)C(=O)N[C@@H](Cc1ccccc1)C(=O)N[C@@H](Cc1ccccc1)C(=O)N1CCC[C@H]1C(=O)N[C@@H](CO)C(=O)O [Epitope P67] (H-FLPSDFFPS-OH; N-terminus and C-terminus assumed),three,–,–,–,< 5,91.5,97.8,> 15,0,0,< 5,86.3,91.5,42,48,95.7,100,> 15,2,4.3,IC50 (HLA-A0207): > 15 µM; IC50 (HLA-A0206): < 5 µM
CC(C)C[C@H](NC(=O)[C@@H](N)Cc1ccccc1)C(=O)N[C@@H](Cc1c[nH]c2ccccc12)C(=O)N[C@@H](CCC(=O)O)C(=O)N[C@@H](Cc1c[nH]c2ccccc12)C(=O)N[C@@H](C)C(=O)N[C@@H](CO)C(=O)N[C@H](C(=O)N[C@@H](CCCNC(=N)N)C(=O)O)C(C)C [Epitope P78] (H-FLWEWASVR-OH; N-terminus and C-terminus assumed),two,–,–,–,< 5,79.7,97.3,< 5,72.1,89.6,–,–,–,–,–,–,–,> 15,1,9.1,–
CC[C@H](C)[C@H](NC(=O)CNC(=O)[C@H](CC(C)C)NC(=O)[C@H](CO)NC(=O)[C@H](CC(C)C)NC(=O)[C@H](CC(C)C)NC(=O)[C@@H](N)Cc1ccccc1)C(=O)N[C@@H](Cc1c[nH]cn1)C(=O)N[C@@H](CC(C)C)C(=O)O [Epitope P10],two,–,7.2,8,–,81.7,71.6,–,60.1,66.1,–,–,–,27,31,21.5,43.2,–,19,17,–
CC(C)C[C@H](NC(=O)[C@H](CO)NC(=O)[C@H](CC(C)C)NC(=O)[C@@H](N)Cc1c[nH]c2ccccc12)C(=O)N[C@@H](CC(C)C)C(=O)N[C@H](C(=O)N1CCC[C@H]1C(=O)N[C@@H](Cc1ccccc1)C(=O)N[C@H](C(=O)O)C(C)C)C(C)C [Epitope P7],three,–,5.5,3.11,–,83,96.4,–,–,–,–,96.3,98.7,38,25,82.9,96.2,–,0,0,–
CC[C@H](C)[C@H](NC(=O)[C@H](Cc1c[nH]c2ccccc12)NC(=O)[C@@H](NC(=O)CNC(=O)[C@H](Cc1ccccc1)NC(=O)[C@H](CO)NC(=O)[C@@H](NC(=O)[C@H](CC(C)C)NC(=O)[C@@H](N)Cc1ccc(O)cc1)C(C)C)C(C)C)C(=O)O [Epitope P11],two,> 15,–,–,< 5,81.2,96.2,> 15,10.2,4.63,< 5,89.4,97.4,–,–,–,–,–,41,52.5,inhibition at 5 µM (HLA-A1101; 24 h): 17.1%; inhibition at 15 µM (HLA-A1101; 24 h): 20%; Affinity (HLA-A2402): inter
